# Columns and labels:
# MCF-7 cells = experiment: Breast Cancer Cell Viability Assays (MCF-7, CellTiter-Glo); type: cell-based; conditions: 5 days' compound exposure; for IC50: Homo sapiens, MCF7, 120 h
# How it was run: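 Percent viability, background-subtracted against untreated wells, was taken from CellTiter-Glo luminescence after 5 days' exposure of MCF-7 cells. Compounds were tested at eleven semilog concentrations, final 0.3–0.000003 μM, in RPMI containing 10% FBS.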
# ER-α in MCF-7 cells = target: T1, ER-α in MCF-7 cells (Homo sapiens, UniProt P03372); experiment: Breast Cancer Cell ER-α In Cell Western Assay (SP1); type: cell-based; conditions: 4 or 24 hr post compound addition; for Emax: MCF7, SP1 antibody, read-out: ER-α In Cell Western Assay (SP1) Max Response; for DC50: SP1 antibody, read-out: ER-α In Cell Western Assay (SP1) IC50
# T1 construct: endogenous in cells; host or cells: MCF-7
# T1 sequence (P03372 1-595): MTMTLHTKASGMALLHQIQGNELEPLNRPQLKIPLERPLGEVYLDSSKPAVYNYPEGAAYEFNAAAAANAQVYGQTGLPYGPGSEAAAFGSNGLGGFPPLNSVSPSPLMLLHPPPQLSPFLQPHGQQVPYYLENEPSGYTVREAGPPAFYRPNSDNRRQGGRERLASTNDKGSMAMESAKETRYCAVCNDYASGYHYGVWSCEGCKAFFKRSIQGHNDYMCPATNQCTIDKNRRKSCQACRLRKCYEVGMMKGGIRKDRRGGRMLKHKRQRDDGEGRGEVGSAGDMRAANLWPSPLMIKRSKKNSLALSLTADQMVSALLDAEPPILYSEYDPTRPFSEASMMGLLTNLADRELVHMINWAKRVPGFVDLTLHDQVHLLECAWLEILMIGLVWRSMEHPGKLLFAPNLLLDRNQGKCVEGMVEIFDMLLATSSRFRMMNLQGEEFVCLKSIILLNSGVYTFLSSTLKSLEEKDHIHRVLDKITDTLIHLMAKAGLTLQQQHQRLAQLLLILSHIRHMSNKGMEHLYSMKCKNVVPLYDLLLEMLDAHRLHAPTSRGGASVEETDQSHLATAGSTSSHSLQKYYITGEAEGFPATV
# How it was run: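 ER-α levels quantified by in-cell western: SP1 signal normalised to DRAQ5 DNA stain, relative to untreated cells (% ER). Compounds at 0.3–0.000003 μM final, 11-point semilog series, 4 or 24 h exposure of MCF-7 cells grown in charcoal-stripped serum.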
Compound,MCF7 Viability Assay Max Response (MCF-7 cells),IC50 (MCF-7 cells) [nM],Emax (ER-α in MCF-7 cells) [%],DC50 (ER-α in MCF-7 cells) [nM]
"Cc1cc(C#N)ccc1/C(=C(\c1ccc(/C=C/C(=O)O)cc1)c1ccc2[nH]ncc2c1)C1CCC1 [Example 55, (E)-3-(4-((E)-2-(4-Cyano-2-methylphenyl)-2-cyclobutyl-1-(1H-indazol-5-yl)vinyl)phenyl)acrylic acid]",++ (++ = a single % value ≧ 40%),≤ 100,≥ 40,≤ 100
"CC/C(=C(/c1ccc(/C=C/C(=O)O)cc1)c1ccc2[nH]nc(F)c2c1)c1cccc(Oc2cncc(S(C)(=O)=O)n2)c1 [Example 56, (E)-3-(4-((E)-1-(3-Fluoro-1H-indazol-5-yl)-2-(3-((6-(methylsulfonyl)pyrazin-2-yl)oxy)phenyl)but-1-en-1-yl)phenyl)acrylic acid]",++ (++ = a single % value ≧ 40%),> 100,≥ 40,≤ 100
"CC/C(=C(/c1ccc(/C=C/C(=O)O)cc1)c1ccc2[nH]nc(F)c2c1)c1cccc(Oc2cnc(S(C)(=O)=O)cn2)c1 [Example 57, (E)-3-(4-((E)-1-(3-Fluoro-1H-indazol-5-yl)-2-(3-((5-(methylsulfonyl)pyrazin-2-yl)oxy)phenyl)but-1-en-1-yl)phenyl)acrylic acid]",++ (++ = a single % value ≧ 40%),≤ 100,≥ 40,≤ 100
"CC/C(=C(/c1ccc(/C=C/C(=O)O)cc1)c1ccc2[nH]nc(F)c2c1)c1ccc(Oc2cncc(S(C)(=O)=O)n2)cc1 [Example 58, (E)-3-(4-((E)-1-(3-Fluoro-1H-indazol-5-yl)-2-(4-((6-(methylsulfonyl)pyrazin-2-yl)oxy)phenyl)but-1-en-1-yl)phenyl)acrylic acid]",++ (++ = a single % value ≧ 40%),> 100,≥ 40,> 100
"CC/C(=C(/c1ccc(/C=C/C(=O)O)cc1)c1ccc2[nH]nc(F)c2c1)c1ccc(Oc2cnc(S(C)(=O)=O)cn2)cc1 [Example 59, (E)-3-(4-((E)-1-(3-Fluoro-1H-indazol-5-yl)-2-(4-((5-(methylsulfonyl)pyrazin-2-yl)oxy)phenyl)but-1-en-1-yl)phenyl)acrylic acid]",++ (++ = a single % value ≧ 40%),≤ 100,≥ 40,≤ 100
"N#Cc1ccc(/C(=C(\c2ccc(/C=C/C(=O)O)cc2)c2ccc3[nH]ncc3c2F)C2CCC2)c(F)c1 [Example 60, (E)-3-(4-((E)-2-(4-Cyano-2-fluorophenyl)-2-cycobutyl-1-(4-fluoro-1H-indazol-5-yl)vinyl)phenyl)acrylic acid]",++ (++ = a single % value ≧ 40%),≤ 100,≥ 40,≤ 100
"N#Cc1cc(Cl)ccc1/C(=C(\c1ccc(/C=C/C(=O)O)cc1)c1ccc2[nH]ncc2c1F)C1CCC1 [Example 61, (E)-3-(4-((E)-2-(4-Chloro-2-cyanophenyl)-2-cyclobutyl-1-(4-fluoro-1H-indazol-5-yl)vinyl)phenyl)acrylic acid]",++ (++ = a single % value ≧ 40%),≤ 100,≥ 40,≤ 100
"N#Cc1ccc(/C(=C(\c2ccc(/C=C/C(=O)O)cc2)c2ccc3[nH]nc(F)c3c2)C2CCC2)c(C#N)c1 [Example 62, (E)-3-(4-((E)-2-Cyclobutyl-2-(2,4-dicyanophenyl)-1-(3-fluoro-1H-indazol-5-yl)vinyl)phenyl)acrylic acid]",++ (++ = a single % value ≧ 40%),≤ 100,≥ 40,≤ 100
"CC/C(=C(/c1ccc(/C=C/C(=O)O)cc1)c1ccc2[nH]nc(F)c2c1)c1ccc(OC)cc1C [Example 63, (E)-3-(4-((E)-1-(3-Fluoro-1H-indazol-5-yl)-2-(4-methoxy-2-methylphenyl)but-1-en-1-yl)phenyl)acrylic acid]",++ (++ = a single % value ≧ 40%),≤ 100,≥ 40,≤ 100
"COc1ccc(/C(=C(\c2ccc(/C=C/C(=O)O)cc2)c2ccc3[nH]ncc3c2)C2CCC2)c(C)c1 [Example 64, (E)-3-(4-((E)-2-Cyclobutyl-1-(1H-indazol-5-yl)-2-(4-methoxy-2-methylphenyl)vinyl)phenyl)acrylic acid]",++ (++ = a single % value ≧ 40%),≤ 100,≥ 40,≤ 100
"COc1ccc(/C(=C(\c2ccc(/C=C/C(=O)O)cc2)c2ccc3[nH]nc(F)c3c2)C2CCC2)c(C)c1 [Example 65, (E)-3-(4-((E)-2-Cyclobutyl-1-(3-fluoro-1H-indazol-5-yl)-2-(4-methoxy-2-methylphenyl)vinyl)phenyl)acrylic acid]",++ (++ = a single % value ≧ 40%),≤ 100,≥ 40,≤ 100
"N#Cc1cc(F)ccc1/C(=C(\c1ccc(/C=C/C(=O)O)cc1)c1ccc2[nH]ncc2c1F)C1CCC1 [Example 66, (E)-3-(4-((E)-2-(2-Cyano-4-fluorophenyl)-2-cyclobutyl-1-(4-fluoro-1H-indazol-5-yl)vinyl)phenyl)acrylic acid]",++ (++ = a single % value ≧ 40%),≤ 100,≥ 40,≤ 100
"COc1ccc(/C(=C(\c2ccc(/C=C/C(=O)O)cc2)c2ccc3[nH]nc(F)c3c2)C2CCC2)c(Cl)c1 [Example 67, (E)-3-(4-((E)-2-(2-Chloro-4-methoxyphenyl)-2-cyclobutyl-1-(3-fluoro-1H-indazol-5-yl)vinyl)phenyl)acrylic acid]",++ (++ = a single % value ≧ 40%),≤ 100,≥ 40,≤ 100
"COc1ccc(/C(=C(\c2ccc(/C=C/C(=O)O)cc2)c2ccc3[nH]nc(F)c3c2)C2CCC2)c(F)c1 [Example 68, (E)-3-(4-((E)-2-Cyclobutyl-1-(3-fluoro-1H-indazol-5-yl)-2-(2-fluoro-4-methoxyphenyl)vinyl)phenyl)acrylic acid]",++ (++ = a single % value ≧ 40%),≤ 100,≥ 40,≤ 100
"COc1ccc(/C(=C(\c2ccc(/C=C/C(=O)O)cc2)c2ccc3[nH]nc(F)c3c2)C2CCC2)c(C)n1 [Example 69, (E)-3-(4-((E)-2-Cyclobutyl-1-(3-fluoro-1H-indazol-5-yl)-2-(6-methoxy-2-methylpyridin-3-yl)vinyl)phenyl)acrylic acid]",++ (++ = a single % value ≧ 40%),≤ 100,≥ 40,≤ 100
"CC/C(=C(/c1ccc(/C=C/C(=O)O)cc1)c1ccc2[nH]nc(F)c2c1)c1ccc(OC)nc1C [Example 70, (E)-3-(4-((E)-1-(3-Fluoro-1H-indazol-5-yl)-2-(6-methoxy-2-methylpyridin-3-yl)but-1-en-1-yl)phenyl)acrylic acid]",++ (++ = a single % value ≧ 40%),≤ 100,≥ 40,≤ 100
"CC/C(=C(/c1ccc(/C=C/C(=O)O)cc1)c1ccc2[nH]nc(F)c2c1)c1cnc(OC)cc1C [Example 71, (E)-3-(4-((E)-1-(3-Fluoro-1H-indazol-5-yl)-2-(6-methoxy-4-methylpyridin-3-yl)but-1-en-1-yl)phenyl)acrylic acid]",++ (++ = a single % value ≧ 40%),≤ 100,≥ 40,≤ 100
"CSc1ccc(/C(=C(\c2ccc(/C=C/C(=O)O)cc2)c2ccc3[nH]nc(F)c3c2)C2CCC2)c(C)c1 [Example 72, (E)-3-(4-((E)-2-Cyclobutyl-1-(3-fluoro-1H-indazol-5-yl)-2-(2-methyl-4-(methylthio)phenyl)vinyl)phenyl)acrylic acid]",++ (++ = a single % value ≧ 40%),≤ 100,≥ 40,≤ 100
"CSc1ccc(/C(=C(\c2ccc(/C=C/C(=O)O)cc2)c2ccc3[nH]nc(F)c3c2)C2CCC2)c(Cl)c1 [Example 73, (E)-3-(4-((E)-2-(2-Chloro-4-(methylthio)phenyl)-2-cyclobutyl-1-(3-fluoro-1H-indazol-5-yl)vinyl)phenyl)acrylic acid]",++ (++ = a single % value ≧ 40%),≤ 100,≥ 40,≤ 100
"N#Cc1cnccc1/C(=C(\c1ccc(/C=C/C(=O)O)cc1)c1ccc2[nH]nc(F)c2c1)C1CCC1 [Example 74, (E)-3-(4-((E)-2-(3-Cyanopyridin-4-yl)-2-cyclobutyl-1-(3-fluoro-1H-indazol-5-yl)vinyl)phenyl)acrylic acid]",++ (++ = a single % value ≧ 40%),≤ 100,≥ 40,≤ 100

# From patent US9499538B2, “Estrogen receptor modulators and uses thereof” (Seragon Pharmaceuticals, Inc., priority 2012, dated 2016)
